Activity calls are given as the source filed them. The calls are words filed in the database; no cut-off is given here. Where only a bound is given, the exact number is not on record here.

Data set [1] concerns the target T1, NAD-dependent protein deacetylase sirtuin-2 (Homo sapiens) (UniProt Q8IXJ6).
T1 sequence (whole entry): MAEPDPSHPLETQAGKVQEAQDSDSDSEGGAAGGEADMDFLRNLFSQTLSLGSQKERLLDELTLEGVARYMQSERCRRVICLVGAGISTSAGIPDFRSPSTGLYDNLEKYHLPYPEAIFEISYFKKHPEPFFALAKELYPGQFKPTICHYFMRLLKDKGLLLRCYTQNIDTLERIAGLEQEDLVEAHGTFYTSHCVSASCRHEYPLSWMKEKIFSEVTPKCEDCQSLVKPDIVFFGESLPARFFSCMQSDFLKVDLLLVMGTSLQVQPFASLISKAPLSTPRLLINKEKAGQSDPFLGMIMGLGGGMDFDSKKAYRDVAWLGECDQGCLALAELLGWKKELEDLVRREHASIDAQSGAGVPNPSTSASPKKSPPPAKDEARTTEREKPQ
As to the kind of experiment: Inhibition of SIRT2 in human HepG2 cells assessed as alpha-tubulin hyperacetylation after 6 hrs by ELISA. Type of data set: cell-based.

For data set [2], the system named is HepG2. As to the kind of experiment: Toxicity in human HepG2 cells after 6 hrs. Type of data set: cell-based. Particulars: hepg2, 6 h.
Data set [3] has as its target T2, NAD-dependent protein deacetylase sirtuin-1 (Homo sapiens) (UniProt Q96EB6).
T2 sequence (whole entry): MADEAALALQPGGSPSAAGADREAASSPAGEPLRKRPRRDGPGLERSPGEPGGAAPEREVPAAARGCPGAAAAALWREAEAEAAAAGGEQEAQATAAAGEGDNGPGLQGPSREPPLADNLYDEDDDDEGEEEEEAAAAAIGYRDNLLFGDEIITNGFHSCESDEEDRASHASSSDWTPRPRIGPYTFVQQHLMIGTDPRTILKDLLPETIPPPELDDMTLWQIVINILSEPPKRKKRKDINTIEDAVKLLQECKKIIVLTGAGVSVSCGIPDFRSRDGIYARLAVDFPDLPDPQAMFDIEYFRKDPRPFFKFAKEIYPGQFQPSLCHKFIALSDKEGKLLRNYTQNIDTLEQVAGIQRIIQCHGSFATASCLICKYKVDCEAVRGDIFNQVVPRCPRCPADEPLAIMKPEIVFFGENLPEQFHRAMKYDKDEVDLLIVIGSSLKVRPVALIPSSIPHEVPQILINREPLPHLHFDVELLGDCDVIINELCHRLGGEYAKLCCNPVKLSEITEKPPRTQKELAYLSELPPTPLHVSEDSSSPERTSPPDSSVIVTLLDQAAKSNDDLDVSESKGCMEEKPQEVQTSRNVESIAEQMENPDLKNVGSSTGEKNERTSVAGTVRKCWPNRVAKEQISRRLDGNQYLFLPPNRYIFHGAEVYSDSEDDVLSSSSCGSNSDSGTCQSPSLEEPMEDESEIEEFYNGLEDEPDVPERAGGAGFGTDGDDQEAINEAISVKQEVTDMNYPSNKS
As to the kind of experiment: Inhibition of human recombinant N-terminally GST-tagged SIRT1 at 50 uM after 4 hrs in presence of NAD+ by fluorescent deacetylase assay.

Data set [4] concerns the target T3, NAD-dependent protein deacetylase sirtuin-3, mitochondrial (Homo sapiens) (UniProt Q9NTG7).
T3 sequence (whole entry): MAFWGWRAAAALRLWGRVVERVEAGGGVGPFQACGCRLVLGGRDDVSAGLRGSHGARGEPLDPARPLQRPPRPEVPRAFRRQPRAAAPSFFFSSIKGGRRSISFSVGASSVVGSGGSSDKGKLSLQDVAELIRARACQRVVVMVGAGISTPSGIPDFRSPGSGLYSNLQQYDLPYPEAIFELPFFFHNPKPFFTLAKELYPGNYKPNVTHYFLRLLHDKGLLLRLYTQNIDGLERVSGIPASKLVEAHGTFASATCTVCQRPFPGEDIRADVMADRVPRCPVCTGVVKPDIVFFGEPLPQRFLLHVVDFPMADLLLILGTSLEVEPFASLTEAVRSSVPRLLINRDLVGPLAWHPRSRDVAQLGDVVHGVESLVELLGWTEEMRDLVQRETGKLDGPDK
Put plainly: Inhibition of human recombinant N-terminally 6X-His-tagged SIRT3 at 50 uM after 4 hrs in presence of NAD+ by fluorescent deacetylase assay.

Data set [5] addresses T1, NAD-dependent protein deacetylase sirtuin-2 (Homo sapiens). As to the kind of experiment: Inhibition of human recombinant N-terminally 6X-His-tagged SIRT2 at 50 uM after 4 hrs in presence of NAD+ by fluorescent deacetylase assay.
Data set [6] has the same target. Put plainly: Inhibition of SIRT2 in human MCF7 cells assessed as tubulin hyperacetylation at 10 uM after 16 hrs by Western blot. Type of data set: cell-based.
The target is the same in data set [7]. Put plainly: Inhibition of SIRT2 in human MCF7 cells assessed as tubulin hyperacetylation at 0.1 uM after 16 hrs by Western blot. Type of data set: cell-based.
The target in data set [8] is T4, NAD-dependent protein deacetylase sirtuin-2 (Homo sapiens, UniProt Q8IXJ6).
T4 sequence (Q8IXJ6 whole entry): T1 sequence (whole entry)
Put plainly: Inhibition of human recombinant N-terminally 6X-His-tagged SIRT2 after 4 hrs in presence of NAD+ by fluorescent deacetylase assay.

For data set [9], the target named is T5, NAD-dependent protein deacetylase sirtuin-1 (Homo sapiens, UniProt Q96EB6).
T5 sequence (Q96EB6 whole entry): T2 sequence (whole entry)
As to the kind of experiment: Inhibition of human recombinant N-terminally GST-tagged SIRT1 after 4 hrs in presence of NAD+ by fluorescent deacetylase assay.

In the case of `O=C1Nc2c(ccc(Cl)c2Cl)/C1=C/c1ccc(F)cc1`, the outcome in data set [1] was inactive. Also, the Activity result in [2] is recorded as “Non-toxic”. In addition, the inhibition in data set [3] was 24.4%; in [4], less than 10%.
Take `Cc1cc(C)c(/C=C2\C(=O)Nc3c2ccc(Cl)c3Cl)[nH]1`: the inhibition in data set [3] is 19.9%; in [4], less than 10%.
`O=C1Nc2c(ccc(Cl)c2Cl)/C1=C\c1ccccn1`: the inhibition in data set [5] was 20.6%; in [3] it was 22.7%; in data set [4] it was less than 10%.
For the compound `Cn1cc(C2=C(c3cn(CCCSC(=N)N)c4ccccc34)C(=O)NC2=O)c2ccccc21`, the outcome in data set [6] was Active.
As to `CC(/C=C/C(=O)NO)=C\[C@@H](C)C(=O)c1ccc(N(C)C)cc1`, in [7], the result was Active.
For the compound `CN(C)c1ccc(/C=C2\C(=O)Nc3c2ccc(Cl)c3Cl)cc1`, the inhibition is less than 10% in [5], 20.7% in data set [3] and less than 10% in [4].
On to `O=C1Nc2c(ccc(Cl)c2Cl)/C1=C/c1ccc(O)cc1`, for which the results for the inhibition in [5], in [3] and in data set [4] were 34.7%, less than 10% and 13.5%, respectively.
For `O=C1Nc2c(ccc(Cl)c2Cl)/C1=C/c1ccc([N+](=O)[O-])cc1`, the values for the inhibition in [3] and in data set [4] were 30.2% and less than 10%, respectively. The IC50 in data set [8] was found to be 10.4 µM.
For `Cn1c2c(Cl)c(Cl)ccc2c2cc[nH]c(=O)c21` [BAUERINE C], the inhibition in data set [3] and in data set [4] was less than 10% throughout.
`O=C1Nc2c(ccc(Cl)c2Cl)/C1=C/c1cc(Br)c(O)c(Br)c1`: the result in data set [1] was Active. In addition, the Activity entry in data set [2] was “Non-toxic”. For the same compound, the IC50 was 40.6 µM in data set [9] and 28.4 µM in data set [8].
As to `O=C1Nc2c(ccc(Cl)c2Cl)/C1=C\c1ccncc1`, the inhibition in data set [5] is 16.5%; in [3], 19.6%; in data set [4], less than 10%.
As for `CCN(CC)CCNC(=O)c1c(C)[nH]c(/C=C2\C(=O)Nc3ccc(F)cc32)c1C` [SUNITINIB], the figures for the inhibition in data set [3] and in data set [4] were less than 10% and 26.4%, respectively. In data set [8], the IC50 stood at 123 µM.
As to `COc1cc(/C=C2\C(=O)Nc3c2ccc(Cl)c3Cl)cc(OC)c1OC`, the inhibition in data set [5], in [3] and in [4] was less than 10% in each case.
As to `O=C1Nc2c(ccc(Cl)c2Cl)/C1=C/c1ccc(C(F)(F)F)cc1`, the inhibition in data set [5] was 18.3%; in [3], 45.4%; in data set [4], less than 10%.
In the case of `O=C1Nc2c(ccc(Cl)c2Cl)/C1=C/c1cc(C(F)(F)F)cc(C(F)(F)F)c1`, the inhibition is 19.8% in data set [3] and less than 10% in data set [4].

These data come from ChEMBL document CHEMBL1156803, “Novel 3-arylideneindolin-2-ones as inhibitors of NAD+ -dependent histone deacetylases (sirtuins)” (J Med Chem, 2010).
